Source: patent publication EP0888303B1, “SYNTHETIC DERIVATIVES OF RAPAMYCIN AS MULTIMERIZING AGENTS FOR CHIMERIC PROTEINS WITH IMMUNOPHILIN-DERIVED DOMAINS” (ARIAD Pharmaceuticals, Inc, priority 1996, dated 1997)
“And” between values parts separate entries of the source, which are not always exact repeats. Identical values can stand only once. Like-named read-outs stand apart in the source and are kept apart here.

Experiments:
mutant (F36V) FKBP = assay: Competitive Binding FP Assay; set-up: species or system human
Description: (§1) Affinities of bumped synthetic ligands for FKBP were determined using a competitive assay based on fluorescence polarization (FP). […] The assay yields IC50 values that are related to the affinity of the competitive ligand for the protein.
(§2) All binding assay procedures were performed at room temperature. Serial dilutions of each protein were prepared in 50 mM potassium phosphate pH 7.8/150 mM NaCl/ 100µg/ml bovine gamma globulin ("FP buffer": prepared using only low-fluorescence reagents from Panvera), and 100 µl volumes transferred to wells of a Dynatech micro-fluor black 96-well fluorescence plate. 100 µl of 10 nM 4 in FP buffer plus 2% ethanol (prepared from an ethanol stock of the probe) was then added to each well with mixing. Duplicate control wells contained FP buffer instead of FKBP (for 0% probe binding) or 10 µM wild-type FKBP (for 100% binding).
(§3) The plates were stored covered in the dark for approximately 30 min to permit equilibration and then the fluorescence polarization of the sample in each well was read on a Jolley FPM-2 FP plate reader (Jolley Consulting and Research, Inc., Grayslake, IL) in accordance with the manufacturer's recommendations. Polarization (mP units) for each protein concentration was plotted (y axis) vs. final concentration of FKBP (x axis). Concentrations were determined by OD280 measurements. Arbitrary units were used for non-quantitated proteins.
(§4) Serial 10-fold dilutions of each synthetic ligand were prepared in 100% ethanol in glass vials and stored on ice. All other manipulations were performed at room temperature. […] 2.0 µl samples of the synthetic ligands were then transferred in duplicate to the wells with mixing. Finally, a probe solution was prepared containing 10 nM 4 in 0.1% ethanol/FP buffer, and 100 µl added to each well with mixing. Duplicate control wells contained ethanol instead of FKBP ligand (for 100% probe binding) or ethanol instead of FKBP ligand and FP buffer instead of FKBP (0% binding).
(§5) The plates were stored covered in the dark for approximately 30 min to permit equilibration and then the fluorescence polarization of the sample in each well read on a Jolley FPM-2 FP plate reader (Jolley Consulting and Research, Inc., Grayslake, IL) in accordance with the manufacturer's recommendations. The mean polarization (mP units) for each competitor concentration, in some cases converted to % total binding by reference to the control values, was plotted (y axis) vs. log molar final concentration of competitor (x axis). […] For incomplete curves the IC50 was determined by interpolation.

F36L mutant FKBP = F36L mutant FKBP (Homo sapiens, UniProt P62942, F37L); assay: Competitive Binding FP Assay
F36L mutant FKBP, sequence (P62942 2-108 F37L): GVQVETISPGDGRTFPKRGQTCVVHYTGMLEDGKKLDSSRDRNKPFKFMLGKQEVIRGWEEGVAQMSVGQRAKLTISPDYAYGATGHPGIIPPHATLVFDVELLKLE
Description: as §1, §2, §3, §4, §5

wild-type human FKBP12 = wild-type human FKBP12 (Homo sapiens, UniProt P62942); assay: Competitive Binding FP Assay
wild-type human FKBP12, sequence (P62942 2-108): as the sequence (P62942 2-108 F37L) above, with L36F counted along it
Description: as §1, §2, §3
Serial 10-fold dilutions of each synthetic ligand were prepared in 100% ethanol in glass vials and stored on ice. All other manipulations were performed at room temperature. […] Finally, a probe solution was prepared containing 10 nM 4 in 0.1% ethanol/FP buffer, and 100 µl added to each well with mixing. Duplicate control wells contained ethanol instead of FKBP ligand (for 100% probe binding) or ethanol instead of FKBP ligand and FP buffer instead of FKBP (0% binding).
as §5

F36M mutant FKBP = assay: Competitive Binding FP Assay; set-up: species or system human; settings: Synthetic Monomers table; normalized to value of FK506 run in the same experiment
Description: as §1, §2, §3, §4, §5

F36A mutant FKBP = assay: Competitive Binding FP Assay; set-up: species or system human; settings: Synthetic Monomers table; normalized to value of FK506 run in the same experiment
Description: as §1, §2, §3, §4, §5

F36I mutant FKBP = assay: Competitive Binding FP Assay; set-up: species or system human; settings: Synthetic Monomers table; normalized to value of FK506 run in the same experiment
Description: as §1, §2, §3, §4, §5

[1] = test system: FKBP-containing fusion proteins (wt FKBP); assay: Transcription Assay, activation of reporter gene transcription (wt; stable); format: cell-based, human; settings: at 1000 nM; each value an individual experiment
Description: The ability of the multimerizing agents to multimerize chimeric proteins may be measured cell-based assays by measuring the occurrence of an event triggered by such multimerization. For instance, one may use cells containing and capable of expressing DNAs encoding chimeric proteins comprising one or more immunophilin-derived ligand binding domains and one or more effector domains capable, upon multimerization, of actuating a biological response. We prefer to use cells which further contain a reporter gene under the transcriptional control of a regulatory element (i.e., promoter) which is responsive to the multimerization of the chimeric proteins (at least one of which contains an FKBP domain). […] The cells are grown or maintained in culture. A multimerizing agent is added to the culture medium and after a suitable incubation period (to permit gene expression and secretion, e.g. several hours or overnight) the presence of the reporter gene product is measured. Positive results, i.e., multimerization, correlates with transcription of the reporter gene as observed by the appearance of the reporter gene product. The reporter gene product may be a conveniently detectable protein (e.g. by ELISA) or may catalyze the production of a conveniently detectable product (e.g. colored).
Dimerizers may also be assayed for their ability to activate transcription of a reporter gene linked to a regulatory sequence responsive to the dimerization of FKBP-containing fusion proteins containing one or more transcription regulatory domains (e.g. DNA binding domains and transcription activation domains). We have made use of such as system as follows. […] The reporter plasmid (G5IL2-SEAP) used in these assays contains a gene that encodes for secreted alkaline phosphatase (SEAP) under the control of the minimal IL2 promoter and 5XGAL4 binding sites placed upstream of the promoter. In all cases, a plasmid expressing growth hormone was used as an internal control to moniter transfection efficiency. Approximately, 16 hrs after transfection, the media was removed and the cells were washed twice with PBS. Cells were refed with 2.5 ml of DMEM containing 10% serum and two hours later, synthetic dimerizers were added directly to the medium at appropriate concentrations in 5ul of ethanol carrier solution. Approximetely, 24 hrs after the addition of the drugs, 100 ul of the media was removed and assayed for SEAP activity and another 100 ul of the media was used to assay for growth hormone activity (to normalize for transfection efficiency).

[2] = test system: FAS-FKBP fusion (wt FKBP) in HT1080 cells; format: cell-based, human; settings: for Fas killing (wt, stable): % @ 1000: human, ht1080 cells, 1 µM
Description: In this case, one uses cells which constituively express a detectable product. The cells also contain and are capable of expressing DNAs encoding chimeric proteins comprising one or more immunophilin-derived ligand binding domains and one or more effector domains, such as the intracellular domain of FAS, capable, upon multimerization, of triggering cell death. […] The cells are maintainined or cultured in a culture medium permitting cell growth or continued viability. The cells or medium are assayed for the presence of the constitutive cellular product, and a base-line level of reporter is thus established. One may use cells engineered for constituive production of hGH or any other conveniently detectable product to serve as the reporter. The compound to be tested is addded to the medium, the cells are incubated, and the cells or medium is tested for the presence of reporter at one or more time points. Decrease in reporter production indicates cell death, an indirect measure of multimerization of the fusion proteins.
The ability of a dimerizer to activate the Fas signal transduction pathway and trigger cell death in cells engineered to express a FAS-FKBP fusion can be tested in cells appropriately transduced by retroviral vectors to express the desired fusion protein. […] The retroviral supernatant is used to transduce target cells. To screen compounds and constructs, we used the human fibrosarcoma line HT1080. Two to three days after transfection, cells are plated into G418 and the resistant population or clones are isolated by standard means. To monitor dimerizer-induced apoptosis, cells are plated into a 96-well plate at either 5000 or 10,000 cells/well in MEM medium containing 10% fetal bovine serum. The next day, medium removed and replaced with freshmedium containing the test compound at various dilutions, in triplicate. In some cases, Actinomycin D is included at 50 ng/ml. Untreated wells are always included. The next day, medium is removed and replaced with medium containing 10% Alamar Blue viability indicator, which changes absorbance properties as a function of reducing agent released into the medium by cell metabolism. Alternatively, cells are counted. Optical density at the appropriate wavelength is measured using a platereader spectroscope.

[3] = test system: cells expressing a construct containing p75 followed by 2 mutant FKBPs followed by a Fas effector domain; assay: Cell death monitored by Alamar Blue or hGH levels in hGH-expressing clones; format: cell-based
Description: As an alternative method for monitoring cell death, cells expressing a construct containing p75 followed by 2 mutant FKBPs followed by a Fas effector domain were transfected using an episomal vector, pCEP4 (Invitrogen Corp.) into which we had inserted DNA encoding hGH under control of a CMV promoter. The vector confers resistance to hygromycin. […] Monitoring Alamar Blue or hGH levels led to very similar EC50 curves for cell viability (measured as a % of control value) plotted against dimerizer concentration. In both cases the concentration of dimerizer corresponding to 50% of control was less than 1 nM.

[4] = Synthetic Monomers table, normalized to value of FK506 run in the same experiment, read-out: F36V IC50
[5] = Synthetic Monomers table, normalized to value of FK506 run in the same experiment, read-out: F36L IC50
[6] = Synthetic Monomers table, normalized to value of FK506 run in the same experiment, read-out: wild-type IC50
[7] = Synthetic Multimerizers table, monomer value in brackets, mean of duplicates, normalized to FK506 = […] (substituted phenyl/lower aliphatic series: to AP1903 values), read-out: FKBPF36V binding affinity IC50
[8] = read-out: FKBPwt binding affinity IC50

Compound | IC50 (mutant (F36V) FKBP; [4]) [nM] | IC50 (F36L mutant FKBP; [5]) [nM] | IC50 (wild-type human FKBP12; [6]) [nM] | IC50 (F36M mutant FKBP) [nM] | IC50 (F36A mutant FKBP) [nM] | IC50 (F36I mutant FKBP) [nM] | IC50 (mutant (F36V) FKBP; [7]) [nM] | also measured
COc1ccc(CCC(OC(=O)C2CCCCN2C(=O)C(c2ccccc2)C2CCCC2)c2cccc(OCC(=O)O)c2)cc1OC (mixture of isomers) [AP1778] | 22 | 32 | 16000 | – | – | – | – | –
COc1ccc(CCC(OC(=O)C2CCCCN2C(=O)C(c2ccccc2)C(C)C)c2cccc(OCC(=O)O)c2)cc1OC (mixture of isomers) [AP1781] | 26 | 33 | 38600 | – | – | – | – | –
COc1ccc(CCC(OC(=O)C2CCCCN2C(=O)C(Cc2ccccc2)c2ccccc2)c2cccc(OCC(=O)O)c2)cc1OC (mixture of isomers) [AP1831] | 153 | 217 | > 10000 | – | – | – | – | –
CCC(C)(C)C(=O)C(=O)N1CCCC[C@H]1C(=O)O[C@H](CCc1ccc(OC)c(OC)c1)c1cccc(OCC(=O)O)c1 [AP1497] | 44 | 47 | 86 | – | – | – | – | –
CC[C@@H](C(=O)N1CCCC[C@H]1C(=O)O[C@H](CCc1ccc(OC)c(OC)c1)c1cccc(OCC(=O)O)c1)c1ccccc1 [AP1769] | 133 | 238 | 220000 | 193 | 460 | 346 | – | –
COc1ccc(CC[C@@H](OC(=O)[C@@H]2CCCCN2C(=O)Cc2ccccc2)c2cccc(OCC(=O)O)c2)cc1OC [AP1780] | 1530 | – | 21600 | 2600 | 8330 | 2060 | – | IC50 (F36L mutant FKBP; read-out: F36L IC50): 3580 nM
COc1ccc(CC[C@@H](OC(=O)[C@@H]2CCCCN2C(=O)[C@H](C)c2ccccc2)c2cccc(OCC(=O)O)c2)cc1OC [AP1782] | 590 | 1400 | > 100000 | 927 | 1430 | 1050 | – | –
COc1ccc(CC[C@@H](OC(=O)[C@@H]2CCCCN2C(=O)[C@@H](C)c2ccccc2)c2cccc(OCC(=O)O)c2)cc1OC [AP1784] | 94 | 92 | 16000 | 414 | 171 | 117 | – | –
CCC(C(=O)N1CCCC[C@H]1C(=O)O[C@H](CCc1ccc(OC)c(OC)c1)c1cccc(OCC(=O)O)c1)c1ccc2c(c1)OCO2 (some centres unmarked) [AP1839] | 9 | – | 13500 | 19 | 32 | 26 | 5.4 | IC50 (F36L mutant FKBP; read-out: F36L IC50): 57 nM; IC50 (wild-type human FKBP12; [8]): 16700 nM
CC[C@H](C(=O)N1CCCC[C@H]1C(=O)O[C@H](CCc1ccc(OC)c(OC)c1)c1cccc(OCC(=O)O)c1)c1cc(OC)c(OC)c(OC)c1 [AP1867] | – | – | – | – | – | – | 1.8 | IC50 (F36L mutant FKBP; read-out: FKBPF36L binding affinity IC50): 6.2 nM; IC50 (wild-type human FKBP12; [8]): 1960 nM
CCC(C(=O)N1CCCC[C@H]1C(=O)O[C@H](CCc1ccc(OC)c(OC)c1)c1cccc(OCC(=O)NCCNC(=O)COc2cccc([C@@H](CCc3ccc(OC)c(OC)c3)OC(=O)[C@@H]3CCCCN3C(=O)C(CC)c3ccc4c(c3)OCO4)c2)c1)c1ccc2c(c1)OCO2 (some centres unmarked) [AP1885] | – | – | – | – | – | – | 59.4 | activation of transcription (wt; stable): % @ 1000 [1]: 0% @ 1000; Fas killing (wt, stable): % @ 1000 [2]: 0% @ 1000
CC[C@H](C(=O)N1CCCC[C@H]1C(=O)O[C@H](CCc1ccc(OC)c(OC)c1)c1cccc(OCC(=O)NCCNC(=O)COc2cccc([C@@H](CCc3ccc(OC)c(OC)c3)OC(=O)[C@@H]3CCCCN3C(=O)[C@@H](CC)c3ccccc3)c2)c1)c1ccccc1 [AP1889] | – | – | – | – | – | – | 10000 | activation of transcription (wt; stable): % @ 1000 [1]: 0% (2×) and 1%; Fas killing (wt, stable): % @ 1000 [2]: 0% @ 1000
CCC(CC)C(=O)N1CCCC[C@H]1C(=O)O[C@H](CCc1ccc(OC)c(OC)c1)c1cccc(OCC(=O)NCCNC(=O)COc2cccc([C@@H](CCc3ccc(OC)c(OC)c3)OC(=O)[C@@H]3CCCCN3C(=O)C(CC)CC)c2)c1 [AP1891] | – | – | – | – | – | – | – | activation of transcription (wt; stable): % @ 1000 [1]: 0% @ 1000; Fas killing (wt, stable): % @ 1000 [2]: 0% @ 1000
CCC(CC)NC(=O)N1CCCC[C@H]1C(=O)O[C@H](CCc1ccc(OC)c(OC)c1)c1cccc(OCC(=O)NCCNC(=O)COc2cccc([C@@H](CCc3ccc(OC)c(OC)c3)OC(=O)[C@@H]3CCCCN3C(=O)NC(CC)CC)c2)c1 [AP1966] | – | – | – | – | – | – | 58 | –
COc1ccc(CC[C@@H](OC(=O)[C@@H]2CCCCN2C(=O)C(c2ccccc2)c2ccccc2)c2cccc(OCC(=O)O)c2)cc1OC [AP14245] | 273 | 684 | – | 173 | 127 | 562 | – | –
CC[C@H](C(=O)N1CCCC[C@H]1C(=O)O[C@H](CCN1CCOCC1)c1cccc(OCC(=O)O)c1)c1cc(OC)c(OC)c(OC)c1 [AP14246, (1R)-1-(3-(carboxymethoxy)phenyl)-3-(morpholino)-1-propyl (2S)-1-((2S)-(3,4,5-trimethoxyphenyl)butyryl)-2-piperdine carboxylate] | – | – | – | – | – | – | 16.5 | –
AP1903 | – | – | – | – | – | – | – | EC50 ([3]; Alamar Blue readout, read-out: concentration of dimerizer corresponding to 50% of control (cell viability, Alamar Blue)): < 1 nM; EC50 ([3]; hGH readout, read-out: concentration of dimerizer corresponding to 50% of control (hGH levels)): < 1 nM; EC50 ([2]; mean values, read-out: Fas killing (wt, stable) EC50): 40 to 50 nM
